Several values for one entry are separate records, joined by “and”; a condition that tells them apart may be missing. Equal entries are not always repeated. Toxic doses and inconclusive results are not listed. No stated cut-off is given here; in the data, active means T/C of 150% or more; inactive means T/C below 125%.
System: L1210 leukemia ip in BDF1 mice, survival T/C
Assay: NCI In Vivo Anticancer Drug Screen. Data for tumor model L1210 Leukemia (intraperitoneal) in B6D2F1 (BDF1) mice
Settings: endpoint: mean survival time, higher = longer survival
Method in brief: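 Value reflects the ratio of survival in compound-treated mice to survival in vehicle-treated controls, with both groups carrying the same transplanted tumor.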

[1] = dose: 50.0 mg/kg/injection, schedule: Q01DX001 (ip), vehicle: Klucel (hydroxypropylcellulose) (HPC)
[2] = dose: 50.0 mg/kg/injection, schedule: Q01DX001 (ip), vehicle: carboxymethylcellulose (CMC)
[3] = dose: 100.0 mg/kg/injection, schedule: Q01DX001 (ip), vehicle: carboxymethylcellulose (CMC)
[4] = dose: 200.0 mg/kg/injection, schedule: Q01DX001 (ip), vehicle: carboxymethylcellulose (CMC)
[5] = dose: 400.0 mg/kg/injection, schedule: Q01DX001 (ip), vehicle: carboxymethylcellulose (CMC)
[6] = dose: 100.0 mg/kg/injection, schedule: Q01DX009 (ip), vehicle: carboxymethylcellulose (CMC)
[7] = dose: 100.0 mg/kg/injection, schedule: Q04DX002 (ip), vehicle: carboxymethylcellulose (CMC)
[8] = dose: 200.0 mg/kg/injection, schedule: Q04DX002 (ip), vehicle: carboxymethylcellulose (CMC)
[9] = dose: 400.0 mg/kg/injection, schedule: Q04DX002 (ip), vehicle: carboxymethylcellulose (CMC)
[10] = dose: 100.0 mg/kg/injection, schedule: Q04DX003 (ip), vehicle: Klucel (hydroxypropylcellulose) (HPC)
[11] = dose: 100.0 mg/kg/injection, schedule: Q01DX001 (ip), vehicle: saline
[12] = dose: 200.0 mg/kg/injection, schedule: Q01DX001 (ip), vehicle: saline
[13] = dose: 400.0 mg/kg/injection, schedule: Q01DX001 (ip), vehicle: saline
[14] = dose: 100.0 mg/kg/injection, schedule: Q01DX009 (ip), vehicle: Klucel (hydroxypropylcellulose) (HPC)
[15] = dose: 200.0 mg/kg/injection, schedule: Q01DX009 (ip), vehicle: Klucel (hydroxypropylcellulose) (HPC)
[16] = dose: 400.0 mg/kg/injection, schedule: Q01DX009 (ip), vehicle: Klucel (hydroxypropylcellulose) (HPC)
[17] = dose: 200.0 mg/kg/injection, schedule: Q04DX003 (ip), vehicle: Klucel (hydroxypropylcellulose) (HPC)
[18] = dose: 400.0 mg/kg/injection, schedule: Q04DX003 (ip), vehicle: Klucel (hydroxypropylcellulose) (HPC)

Measured: T/C

Nc1nc2c(ncn2-c2cccc(NC(=O)Nc3cc(S(=O)(=O)F)ccc3Cl)c2)c(=O)[nH]1
inactive: dose: 12.5 mg/kg/injection, schedule: Q01DX001 (ip), vehicle: Klucel (hydroxypropylcellulose) (HPC) 87 % of control | dose: 25.0 mg/kg/injection, schedule: Q01DX001 (ip), vehicle: Klucel (hydroxypropylcellulose) (HPC) 96 % of control | [1] 89 % of control

O=C1C(=O)C2CCC1C2
inactive: dose: 25.0 mg/kg/injection, schedule: Q04DX002 (ip), vehicle: other 100 % of control | dose: 50.0 mg/kg/injection, schedule: Q04DX002 (ip), vehicle: other 98 % of control | dose: 100.0 mg/kg/injection, schedule: Q04DX002 (ip), vehicle: other 98 % of control

O=C(/C=C(/C(=O)c1ccccc1)N1CC1)c1ccccc1
inactive: [2] 113 % of control | [3] 105 % of control | [4] 97 % of control | [5] 103 % of control

NC(=O)c1ccccc1OC(=O)Nc1ccc(F)cc1
inactive: [2] 100 % of control | dose: 50.0 mg/kg/injection, schedule: Q01DX009 (ip), vehicle: carboxymethylcellulose (CMC) 97 % of control | [3] 103 % of control | [6] 100 % of control and 103 % of control | [7] 100 % of control and 109 % of control | [4] 102 % of control | [8] 100 % of control | [9] 86 % of control

Cc1ccc(-n2c(O)c(N=Nc3ccc(Br)cc3)c(=O)n(-c3ccc(Br)cc3)c2=S)cc1
inactive: [1] 100 % of control | dose: 100.0 mg/kg/injection, schedule: Q01DX001 (ip), vehicle: Klucel (hydroxypropylcellulose) (HPC) 109 % of control | dose: 200.0 mg/kg/injection, schedule: Q01DX001 (ip), vehicle: Klucel (hydroxypropylcellulose) (HPC) 106 % of control

Cc1ccc([N+](=O)[O-])cc1N=Nc1ccc(O)c(C(=O)O)c1
inactive: dose: 25.0 mg/kg/injection, schedule: Q04DX003 (ip), vehicle: Klucel (hydroxypropylcellulose) (HPC) 93 % of control | dose: 50.0 mg/kg/injection, schedule: Q04DX003 (ip), vehicle: Klucel (hydroxypropylcellulose) (HPC) 96 % of control | [10] 96 % of control and 88 % of control

CC(=O)N/C(=C\c1ccccc1)C(N)=O
inactive: dose: 100.0 mg/kg/injection, schedule: Q04DX003 (ip), vehicle: saline with Tween-80 91 % of control | dose: 200.0 mg/kg/injection, schedule: Q04DX003 (ip), vehicle: saline with Tween-80 97 % of control | dose: 400.0 mg/kg/injection, schedule: Q04DX003 (ip), vehicle: saline with Tween-80 96 % of control

CN(CCO)CC1COc2ccccc2O1 (stereo not given)
inactive: dose: 50.0 mg/kg/injection, schedule: Q01DX001 (ip), vehicle: saline 97 % of control | [11] 105 % of control | [12] 88 % of control

O=C(/C=C\c1ccccc1)NCCCCNC(=O)/C=C/c1ccccc1
inactive: [11] 97 % of control | [12] 105 % of control | [13] 87 % of control

CC(C)(C)OC(=O)/N=N/C(=O)OC(C)(C)C
inactive: [3] 102 % of control | [4] 94 % of control | [5] 94 % of control

CCCCN(Cc1ccccc1)C(=O)Nc1ccccc1
inactive: [14] 97 % of control | [15] 111 % of control | [16] 100 % of control

O=C(NCc1ccccc1Cl)Nc1ccc(F)cc1
inactive: [3] 92 % of control | [6] 92 % of control and 93 % of control | [7] 95 % of control (2×) and 97 % of control | dose: 100.0 mg/kg/injection, schedule: Q04DX003 (ip), vehicle: carboxymethylcellulose (CMC) 95 % of control | [4] 96 % of control | dose: 200.0 mg/kg/injection, schedule: Q01DX009 (ip), vehicle: carboxymethylcellulose (CMC) 101 % of control | [8] 94 % of control and 96 % of control and 88 % of control | dose: 200.0 mg/kg/injection, schedule: Q04DX003 (ip), vehicle: carboxymethylcellulose (CMC) 96 % of control | [5] 87 % of control | dose: 400.0 mg/kg/injection, schedule: Q01DX009 (ip), vehicle: carboxymethylcellulose (CMC) 92 % of control and 88 % of control | [9] 93 % of control | dose: 400.0 mg/kg/injection, schedule: Q04DX003 (ip), vehicle: carboxymethylcellulose (CMC) 91 % of control

CC(C)c1cc(O)ccc1O
inactive: dose: 100.0 mg/kg/injection, schedule: Q01DX001 (ip), vehicle: other 102 % of control | dose: 200.0 mg/kg/injection, schedule: Q01DX001 (ip), vehicle: other 94 % of control

CCOC(=O)NC(NC(=O)OCC)C(Cl)CC (stereo not given)
inactive: [11] 107 % of control | [12] 97 % of control | [13] 101 % of control

N#C/C(=C/c1ccnc2ccccc12)c1ccccc1
inactive: [10] 101 % of control | [17] 101 % of control | [18] 95 % of control

Clc1ccc(/C=N/Nc2nnc(N/N=C/c3ccc(Cl)cc3Cl)c3ccccc23)c(Cl)c1
inactive: [2] 88 % of control | [3] 89 % of control | [4] 93 % of control | [5] 100 % of control

Cc1noc(-c2ccc([N+](=O)[O-])o2)n1
inactive: dose: 100.0 mg/kg/injection, schedule: Q04DX002 (ip), vehicle: Klucel (hydroxypropylcellulose) (HPC) 94 % of control | dose: 200.0 mg/kg/injection, schedule: Q04DX002 (ip), vehicle: Klucel (hydroxypropylcellulose) (HPC) 105 % of control

ClCC1COC(c2ccccc2)O1 (stereo not given)
inactive: dose: 5.8 mg/kg/injection, schedule: Q01DX Z (ip), vehicle: methylcellulose (MC) 112 % of control | dose: 8.8 mg/kg/injection, schedule: Q01DX Z (ip), vehicle: methylcellulose (MC) 102 % of control | dose: 13.3 mg/kg/injection, schedule: Q01DX Z (ip), vehicle: methylcellulose (MC) 115 % of control | dose: 20.0 mg/kg/injection, schedule: Q01DX Z (ip), vehicle: methylcellulose (MC) 97 % of control

O=C(O)C(O)c1cccc(Cl)c1 (stereo not given)
inactive: dose: 75.0 mg/kg/injection, schedule: Q01DX001 (ip), vehicle: acetone 94 % of control | dose: 150.0 mg/kg/injection, schedule: Q01DX001 (ip), vehicle: acetone 94 % of control

Cc1cccc(C)c1NC(=O)Nc1ccc(Cl)cc1
inactive: [14] 97 % of control | [10] 97 % of control | [15] 96 % of control | [17] 100 % of control | [16] 91 % of control | [18] 95 % of control

O=c1[nH]nc(-c2ccc(C(F)(F)F)cc2)s1
inactive: dose: 75.0 mg/kg/injection, schedule: Q01DX001 (ip), vehicle: saline 95 % of control | dose: 75.0 mg/kg/injection, schedule: Q04DX003 (ip), vehicle: saline 93 % of control | dose: 150.0 mg/kg/injection, schedule: Q01DX001 (ip), vehicle: saline 104 % of control | dose: 150.0 mg/kg/injection, schedule: Q04DX003 (ip), vehicle: saline 98 % of control | dose: 300.0 mg/kg/injection, schedule: Q01DX001 (ip), vehicle: saline 97 % of control | dose: 300.0 mg/kg/injection, schedule: Q04DX003 (ip), vehicle: saline 98 % of control

CC1CCOC(=O)CCCCC1=O (stereo not given)
inactive: [11] 101 % of control | [12] 90 % of control | [13] 109 % of control

CC[CH2][Sn]([CH2]CC)([CH2]CC)[CH2]Cc1ccncc1
inactive: dose: 6.25 mg/kg/injection, schedule: Q04DX002 (ip), vehicle: saline with Tween-80 101 % of control | dose: 12.5 mg/kg/injection, schedule: Q04DX002 (ip), vehicle: saline with Tween-80 93 % of control | dose: 25.0 mg/kg/injection, schedule: Q04DX002 (ip), vehicle: saline with Tween-80 89 % of control

Nc1nc(N)c(-c2ccc(Cl)c(Cl)c2)c(C=O)n1
inactive: [11] 107 % of control | [12] 114 % of control | [13] 111 % of control

COC(=O)C(NC(=O)c1ccccc1)C(C)(C)SCc1ccccc1 (stereo not given)
inactive: dose: 100.0 mg/kg/injection, schedule: Q04DX003 (ip), vehicle: other 92 % of control | dose: 200.0 mg/kg/injection, schedule: Q04DX003 (ip), vehicle: other 96 % of control | dose: 400.0 mg/kg/injection, schedule: Q04DX003 (ip), vehicle: other 92 % of control

Reference: PubChem BioAssay AID248 (DTP/NCI, 2004)
